# Assay results from US20230126569A1, “COMPOSITION FOR […] OF SARS-CoV-2 TO ACE2 PROTEIN” (priority 2020, published 2023).
# Values joined by “and” are separate entries in the source; they are usually repeats but may differ in a detail not shown here. Equal values may be shown once.
# Tests used:
# [1] = molecular target: T1, binding between the spike protein of SARS-CoV-2 and the ACE2 protein (Severe acute respiratory syndrome coronavirus 2, UniProt P0DTC2)
# [2] = molecular target: T1, binding between the spike protein of SARS-CoV-2 and the ACE2 protein; remark: listed apart in the source
structure (smiles),measurement,setting,value
"[O][Cl+][O-] [Chlorine Dioxide, chlorine dioxide]",binding between the spike protein and the ACE2 protein,[1],significantly reduced
same,"Luminescence Intensity (counts/sec × 1000, average ± standard deviation, n = 3)",[2],1322 ± 45 counts/sec × 1000 and 1072 ± 47 counts/sec × 1000
